Results from paper PMC5218480 (PLoS ONE, 2017).

Tested on: MV-4-11 cells
Assay: Gene expression microarray analysis (Affymetrix PrimeView) and GSEA
Type: cell-based, human
Design: RFU PODN (11730768_x_at) / Fold change /veh PODN (11730768_x_at) / RFU LINC00158 (11744669_a_at) / Fold change /veh LINC00158 (11744669_a_at) / RFU DUSP10 (11751237_a_at) / Fold change /veh DUSP10 (11751237_a_at) / RFU ID3 (11757404_x_at) / Fold change /veh ID3 (11757404_x_at) / RFU PLEKHG5 (11737974_s_at) / Fold change /veh PLEKHG5 (11737974_s_at) / RFU LRRC4B (11730491_at) / Fold change /veh LRRC4B (11730491_at) / RFU GIMAP4 (11747438_a_at) / Fold change /veh GIMAP4 (11747438_a_at) / RFU KRT8 (11758183_x_at) / Fold change /veh KRT8 (11758183_x_at) / RFU CNN1 (11734310_a_at) / Fold change /veh CNN1 (11734310_a_at) / RFU VPS37D (11726825_at) / Fold change /veh VPS37D (11726825_at) / RFU C10orf10 (11716522_x_at) / Fold change /veh C10orf10 (11716522_x_at) / RFU KIR2DL2 /// KIR2DL4 /// KIR2DL5A /// KIR2DL5B /// KIR2DS1 /// KIR2DS2 /// KIR2DS3 /// KIR2DS4 /// KIR3DL3 /// KIR3DL3 /// KIR3DS1 (11738374_at) / Fold change /veh KIR2DL2 /// KIR2DL4 /// KIR2DL5A /// KIR2DL5B /// KIR2DS1 /// KIR2DS2 /// KIR2DS3 /// KIR2DS4 /// KIR3DL3 /// KIR3DL3 /// KIR3DS1 (11738374_at) / RFU C1QL1 (11718748_at) / Fold change /veh C1QL1 (11718748_at) / RFU TMPRSS4 (11747572_a_at) / Fold change /veh TMPRSS4 (11747572_a_at) / RFU HAMP (11756126_x_at) / Fold change /veh HAMP (11756126_x_at) / RFU RNFT2 (11725882_a_at) / Fold change /veh RNFT2 (11725882_a_at) / RFU NR4A2 (11747474_a_at) / Fold change /veh NR4A2 (11747474_a_at) / RFU ABCC12 (11746883_a_at) / Fold change /veh ABCC12 (11746883_a_at) / RFU TMEM136 (11760407_x_at) / Fold change /veh TMEM136 (11760407_x_at) / RFU CLDN22 /// WWC2 (11732394_at) / Fold change /veh CLDN22 /// WWC2 (11732394_at) / RFU HLA-DPB1 (11760878_x_at) / Fold change /veh HLA-DPB1 (11760878_x_at) / RFU SPINT1 (11716480_a_at) / Fold change /veh SPINT1 (11716480_a_at) / RFU GAP43 (11754022_s_at) / Fold change /veh GAP43 (11754022_s_at) / RFU A4GNT (11735810_at) / Fold change /veh A4GNT (11735810_at) / RFU PRB3 (11715151_x_at) / Fold change /veh PRB3 (11715151_x_at) / RFU TUBB4B (11761932_at) / Fold change /veh TUBB4B (11761932_at) / RFU CAPN14 (11732068_a_at) / Fold change /veh CAPN14 (11732068_a_at) / RFU TMCC2 (11721928_a_at) / Fold change /veh TMCC2 (11721928_a_at) / RFU IRGQ (11745062_a_at) / Fold change /veh IRGQ (11745062_a_at) / RFU FAM174B (11720279_a_at) / Fold change /veh FAM174B (11720279_a_at) / RFU TMPRSS4 (11748680_a_at) / Fold change /veh TMPRSS4 (11748680_a_at) / RFU FAM212B (11763350_a_at) / Fold change /veh FAM212B (11763350_a_at) / RFU PLEKHG5 (11743358_a_at) / Fold change /veh PLEKHG5 (11743358_a_at) / RFU ZSCAN30 (11745921_a_at) / Fold change /veh ZSCAN30 (11745921_a_at) / RFU CMKLR1 (11741424_a_at) / Fold change /veh CMKLR1 (11741424_a_at) / RFU LOC101060620 /// MAPK8IP1 (11723275_at) / Fold change /veh LOC101060620 /// MAPK8IP1 (11723275_at) / RFU SPTSSB (11747773_x_at) / Fold change /veh SPTSSB (11747773_x_at) / RFU PRSS12 (11739890_at) / Fold change /veh PRSS12 (11739890_at) / RFU BIN1 (11741810_x_at) / Fold change /veh BIN1 (11741810_x_at) / RFU WNT11 (11732464_a_at) / Fold change /veh WNT11 (11732464_a_at) / RFU C10orf10 (11716521_a_at) / Fold change /veh C10orf10 (11716521_a_at) / RFU C5orf56 (11738089_at) / Fold change /veh C5orf56 (11738089_at) / RFU CYB561 (11721691_x_at) / Fold change /veh CYB561 (11721691_x_at) / RFU ANKRD19P (11752326_a_at) / Fold change /veh ANKRD19P (11752326_a_at) / RFU OR2T12 /// OR2T33 /// OR2T8 (11738714_s_at) / Fold change /veh OR2T12 /// OR2T33 /// OR2T8 (11738714_s_at) / RFU VCAN (11748164_a_at) / Fold change /veh VCAN (11748164_a_at) / RFU JSRP1 (11732532_at) / Fold change /veh JSRP1 (11732532_at) / RFU KRTAP10-11 (11738290_x_at) / Fold change /veh KRTAP10-11 (11738290_x_at) / RFU MYO3A (11730013_a_at) / Fold change /veh MYO3A (11730013_a_at) / RFU EBF3 (11725865_a_at) / Fold change /veh EBF3 (11725865_a_at) / RFU CAMK2N1 (11719241_x_at) / Fold change /veh CAMK2N1 (11719241_x_at) / RFU C5orf56 (11738088_a_at) / Fold change /veh C5orf56 (11738088_a_at) / RFU OLFML3 (11715873_a_at) / Fold change /veh OLFML3 (11715873_a_at) / RFU LOC100653217 /// NTM (11731650_a_at) / Fold change /veh LOC100653217 /// NTM (11731650_a_at) / RFU MAPK11 (11762145_a_at) / Fold change /veh MAPK11 (11762145_a_at) / RFU FIZ1 (11724087_x_at) / Fold change /veh FIZ1 (11724087_x_at) / RFU OASL (11726364_x_at) / Fold change /veh OASL (11726364_x_at) / RFU SOX15 (11748057_x_at) / Fold change /veh SOX15 (11748057_x_at) / RFU CD79A (11719716_a_at) / Fold change /veh CD79A (11719716_a_at) / RFU HIST1H1D (11736915_at) / Fold change /veh HIST1H1D (11736915_at) / RFU CASKIN2 (11723855_a_at) / Fold change /veh CASKIN2 (11723855_a_at) / RFU LOC730098 (11760151_x_at) / Fold change /veh LOC730098 (11760151_x_at) / RFU OR4N2 (11742367_at) / Fold change /veh OR4N2 (11742367_at) / RFU PRRT2 (11749266_a_at) / Fold change /veh PRRT2 (11749266_a_at) / RFU SNX32 (11753110_a_at) / Fold change /veh SNX32 (11753110_a_at) / RFU CDHR5 (11726645_a_at) / Fold change /veh CDHR5 (11726645_a_at) / RFU RCAN1 (11760418_a_at) / Fold change /veh RCAN1 (11760418_a_at) / RFU FAM167A (11723789_a_at) / Fold change /veh FAM167A (11723789_a_at) / RFU FAM26E (11764081_at) / Fold change /veh FAM26E (11764081_at) / RFU ISYNA1 (11749810_s_at) / Fold change /veh ISYNA1 (11749810_s_at) / RFU ACY1 (11761880_at) / Fold change /veh ACY1 (11761880_at) / RFU 11764098_at / Fold change /veh 11764098_at / RFU SAMD14 (11745864_x_at) / Fold change /veh SAMD14 (11745864_x_at) / RFU NPB (11741838_a_at) / Fold change /veh NPB (11741838_a_at) / RFU TMPRSS6 (11731388_a_at) / Fold change /veh TMPRSS6 (11731388_a_at) / RFU KRTAP10-2 (11738614_at) / Fold change /veh KRTAP10-2 (11738614_at) / RFU ARHGAP8 /// PRR5-ARHGAP8 (11727945_x_at) / Fold change /veh ARHGAP8 /// PRR5-ARHGAP8 (11727945_x_at) / RFU KRTAP5-7 /// NADSYN1 (11734609_at) / Fold change /veh KRTAP5-7 /// NADSYN1 (11734609_at) / RFU RASL12 (11751679_a_at) / Fold change /veh RASL12 (11751679_a_at) / RFU CDKN2B (11736163_a_at) / Fold change /veh CDKN2B (11736163_a_at) / RFU PRF1 (11729649_at) / Fold change /veh PRF1 (11729649_at) / RFU, ZNF638 /// ZNF638-IT1 / Fold change vs veh, ZNF638 /// ZNF638-IT1 / RFU, PANK3 / Fold change vs veh, PANK3 / RFU, SH3YL1 / Fold change vs veh, SH3YL1 / RFU, ZEB2 / Fold change vs veh, ZEB2 / RFU, NRIP1 / Fold change vs veh, NRIP1 / RFU, PTTG1IP / Fold change vs veh, PTTG1IP / RFU, CAPN2 / Fold change vs veh, CAPN2 / RFU, MED14 / Fold change vs veh, MED14 / RFU, SNORA58 / Fold change vs veh, SNORA58 / RFU, C1orf63 / Fold change vs veh, C1orf63 / RFU, LRRFIP1 / Fold change vs veh, LRRFIP1 / RFU, NDUFAF7 / Fold change vs veh, NDUFAF7 / RFU, SLC12A2 / Fold change vs veh, SLC12A2 / RFU, IBTK / Fold change vs veh, IBTK / RFU, ESF1 / Fold change vs veh, ESF1 / Fold change vs veh, TMEM50B / RFU, TAOK1 / Fold change vs veh, TAOK1 / RFU, ACBD3 / Fold change vs veh, ACBD3 / RFU, TMA16 / Fold change vs veh, TMA16 / RFU, RWDD3 / Fold change vs veh, RWDD3 / RFU, BCAT1 / Fold change vs veh, BCAT1 / RFU, EDEM3 / Fold change vs veh, EDEM3 / RFU, TMEM33 / Fold change vs veh, TMEM33 / RFU, WDR75 / Fold change vs veh, WDR75 / RFU, AHCTF1 / Fold change vs veh, AHCTF1 / RFU, TFRC / Fold change vs veh, TFRC / RFU, ZDHHC17 / Fold change vs veh, ZDHHC17 / RFU, NOM1 / Fold change vs veh, NOM1 / RFU, ARL8B / Fold change vs veh, ARL8B / RFU, ZBTB11 / Fold change vs veh, ZBTB11 / RFU, TAMM41 / Fold change vs veh, TAMM41 / RFU, KIAA1704 /// LOC100996395 / Fold change vs veh, KIAA1704 /// LOC100996395 / RFU, ING1 / Fold change vs veh, ING1 / RFU, TRMT61B / Fold change vs veh, TRMT61B / RFU, FUBP3 / Fold change vs veh, FUBP3 / RFU, TP53 / Fold change vs veh, TP53 / RFU, TNKS2 / Fold change vs veh, TNKS2 / RFU, ZFP14 / Fold change vs veh, ZFP14 / RFU, ACTR2 / Fold change vs veh, ACTR2 / RFU, PPP3R1 / Fold change vs veh, PPP3R1 / RFU, PIK3R1 / Fold change vs veh, PIK3R1 / RFU, HNRNPA1 / Fold change vs veh, HNRNPA1 / RFU, RNF170 / Fold change vs veh, RNF170 / RFU, ZNF28 / Fold change vs veh, ZNF28 / RFU, RNGTT / Fold change vs veh, RNGTT / RFU, OGT / Fold change vs veh, OGT / RFU, BRD1 / Fold change vs veh, BRD1 / RFU, MARS / Fold change vs veh, MARS / RFU, ZNF655 / Fold change vs veh, ZNF655 / RFU, FAHD1 / Fold change vs veh, FAHD1 / RFU, BDP1 / Fold change vs veh, BDP1 / RFU, LRRCC1 / Fold change vs veh, LRRCC1 / RFU, ARID1A / Fold change vs veh, ARID1A / RFU, ZNF146 / Fold change vs veh, ZNF146 / RFU, ZNF330 / Fold change vs veh, ZNF330 / RFU, GPN3 / Fold change vs veh, GPN3 / RFU, C9orf123 / Fold change vs veh, C9orf123 / RFU, N4BP2L2 / Fold change vs veh, N4BP2L2 / RFU, ARFIP1 / Fold change vs veh, ARFIP1 / RFU, FAM179B / Fold change vs veh, FAM179B / RFU, BCL10 / Fold change vs veh, BCL10 / RFU, UHRF1BP1L / Fold change vs veh, UHRF1BP1L / RFU, BET1 / Fold change vs veh, BET1 / RFU, CNOT2 / Fold change vs veh, CNOT2 / RFU, ZNF268 / Fold change vs veh, ZNF268 / Fold change vs veh, ZNF507 / RFU, DGCR2 / Fold change vs veh, DGCR2 / RFU, WDSUB1 / Fold change vs veh, WDSUB1 / Fold change vs veh, HSP90B1 /// MIR3652 / RFU, ADSS / Fold change vs veh, ADSS / RFU, GK / Fold change vs veh, GK / RFU, ZNF148 / Fold change vs veh, ZNF148 / RFU, TAF9 / Fold change vs veh, TAF9 / RFU, SLC1A5 / Fold change vs veh, SLC1A5 / RFU, SLMO2 / Fold change vs veh, SLMO2 / RFU, ABCC4 / Fold change vs veh, ABCC4 / RFU, LOC101060439 /// RAP1B / Fold change vs veh, LOC101060439 /// RAP1B / RFU, RFX7 / Fold change vs veh, RFX7 / RFU, GTPBP10 / Fold change vs veh, GTPBP10 / RFU, CNEP1R1 / Fold change vs veh, CNEP1R1 / RFU, BIVM-ERCC5 /// ERCC5 / Fold change vs veh, BIVM-ERCC5 /// ERCC5 / RFU, ILF3 / Fold change vs veh, ILF3 / RFU 11762660_at / Fold change /veh 11762660_at / RFU VCAN (11757783_s_at) / Fold change /veh VCAN (11757783_s_at) / RFU DDX43 (11728927_at) / Fold change /veh DDX43 (11728927_at) / RFU KRT8 (11758188_x_at) / Fold change /veh KRT8 (11758188_x_at) / RFU NKD1 (11759106_at) / Fold change /veh NKD1 (11759106_at) / RFU SRD5A1 (11742802_a_at) / Fold change /veh SRD5A1 (11742802_a_at) / RFU TPSAB1 /// TPSB2 (11721975_s_at) / Fold change /veh TPSAB1 /// TPSB2 (11721975_s_at) / RFU GSTM3 (11746129_a_at) / Fold change /veh GSTM3 (11746129_a_at) / RFU IL23R (11737362_x_at) / Fold change /veh IL23R (11737362_x_at) / RFU TMEM51 (11727254_a_at) / Fold change /veh TMEM51 (11727254_a_at) / RFU PIWIL2 (11732686_x_at) / Fold change /veh PIWIL2 (11732686_x_at) / RFU ORM1 (11744905_x_at) / Fold change /veh ORM1 (11744905_x_at) / RFU CCDC152 (11743942_at) / Fold change /veh CCDC152 (11743942_at) / RFU ECM1 (11717891_a_at) / Fold change /veh ECM1 (11717891_a_at) / RFU IL23R (11748794_a_at) / Fold change /veh IL23R (11748794_a_at) / RFU TNFAIP8L3 (11732012_x_at) / Fold change /veh TNFAIP8L3 (11732012_x_at) / RFU MBOAT4 (11741988_at) / Fold change /veh MBOAT4 (11741988_at) / RFU 11764193_at / Fold change /veh 11764193_at / RFU TMEM53 (11763286_at) / Fold change /veh TMEM53 (11763286_at) / RFU MAGEB2 (11727129_at) / Fold change /veh MAGEB2 (11727129_at) / RFU TMEM200A (11744735_a_at) / Fold change /veh TMEM200A (11744735_a_at) / RFU CCDC152 (11751479_a_at) / Fold change /veh CCDC152 (11751479_a_at) / RFU FAM211A (11726209_a_at) / Fold change /veh FAM211A (11726209_a_at) / RFU RGS16 (11746705_a_at) / Fold change /veh RGS16 (11746705_a_at) / RFU VCAN (11755009_s_at) / Fold change /veh VCAN (11755009_s_at) / RFU RHOB (11743442_s_at) / Fold change /veh RHOB (11743442_s_at) / RFU RGS16 (11720943_a_at) / Fold change /veh RGS16 (11720943_a_at) / RFU RGS16 (11720944_at) / Fold change /veh RGS16 (11720944_at) / RFU, VPS4B / Fold change vs veh, VPS4B / RFU, CREB1 / Fold change vs veh, CREB1 / RFU, DNAJC13 / Fold change vs veh, DNAJC13 / RFU, GNAQ / Fold change vs veh, GNAQ / RFU, CDK5R1 / Fold change vs veh, CDK5R1 / RFU, ZRANB3 / Fold change vs veh, ZRANB3 / RFU, CUL4A / Fold change vs veh, CUL4A / RFU, CCNY / Fold change vs veh, CCNY / RFU, UFL1 / Fold change vs veh, UFL1 / RFU, COG3 / Fold change vs veh, COG3 / RFU, DIAPH2 / Fold change vs veh, DIAPH2 / RFU, SKA2 / Fold change vs veh, SKA2 / RFU, AFF3 / Fold change vs veh, AFF3 / RFU, LMF1 / Fold change vs veh, LMF1 / RFU, IPO11 / Fold change vs veh, IPO11 / RFU, DFFB / Fold change vs veh, DFFB / RFU, FOXP1 / Fold change vs veh, FOXP1 / RFU, CARD8 / Fold change vs veh, CARD8 / RFU, STRN3 / Fold change vs veh, STRN3 / RFU, ADK / Fold change vs veh, ADK / RFU, RASSF2 / Fold change vs veh, RASSF2 / RFU, WIPF1 / Fold change vs veh, WIPF1 / RFU, LARP1B / Fold change vs veh, LARP1B / RFU, RASA1 / Fold change vs veh, RASA1 / RFU, RB1 / Fold change vs veh, RB1 / RFU, PPFIA1 / Fold change vs veh, PPFIA1 / RFU, MAT2A / Fold change vs veh, MAT2A / RFU, CCT5 / Fold change vs veh, CCT5 / RFU, WDR92 / Fold change vs veh, WDR92 / RFU, CUX1 / Fold change vs veh, CUX1 / RFU, TTC7A / Fold change vs veh, TTC7A / RFU, TMEM135 / Fold change vs veh, TMEM135 / RFU, DEPTOR / Fold change vs veh, DEPTOR / RFU, CPM / Fold change vs veh, CPM / RFU, DNAJB6 / Fold change vs veh, DNAJB6 / RFU, CACNA2D3 / Fold change vs veh, CACNA2D3 / RFU, DTX4 / Fold change vs veh, DTX4 / RFU, TFCP2 / Fold change vs veh, TFCP2 / RFU, GMCL1 /// GMCL1P1 / Fold change vs veh, GMCL1 /// GMCL1P1 / RFU, AEBP2 / Fold change vs veh, AEBP2 / RFU, SNHG1 /// SNORD22 /// SNORD25 /// SNORD26 /// SNORD27 /// SNORD28 /// SNORD29 /// SNORD31 / Fold change vs veh, SNHG1 /// SNORD22 /// SNORD25 /// SNORD26 /// SNORD27 /// SNORD28 /// SNORD29 /// SNORD31 / Fold change (Aza/veh), C12orf56 (ProbeSet 11735607_a_at) / Fold change (ACY-1035/veh), C12orf56 (ProbeSet 11735607_a_at) / Fold change (Aza/veh), FGFR1OP (ProbeSet 11751329_s_at) / Fold change (ACY-1035/veh), FGFR1OP (ProbeSet 11751329_s_at) / Fold change (Aza/veh), VPS36 (ProbeSet 11739960_a_at) / Fold change (ACY-1035/veh), VPS36 (ProbeSet 11739960_a_at) / RFU SYPL1 (11715823_x_at) / Fold change /veh SYPL1 (11715823_x_at) / RFU IGFBP7 (11715501_s_at) / Fold change /veh IGFBP7 (11715501_s_at) / RFU REEP3 (11722064_at) / Fold change /veh REEP3 (11722064_at) / RFU IGLL1 (11728026_x_at) / Fold change /veh IGLL1 (11728026_x_at): dose or concentration left out as unconfirmed
Details: ProbeSet 11738335_x_at; LIST B

Nc1ncn([C@@H]2O[C@H](CO)[C@@H](O)[C@H]2O)c(=O)n1 [azacitidine]
Fold change vs veh, TP53: 0.89
